For series [1], the system named is influenza A/PR/8/34 (H1N1). As to the kind of experiment: In vivo antiviral assay in infected mice. Also on record: species or system C57BL/6 mice. The protocol:
Six-week-old female C57BL/6 mice purchased from KOATECH (Pyeongtaek, South Korea) infected with the PR8 influenza strain (A/PR/8/34, H1N1). After anesthesia, mice were inoculated with 4.25 log10EID50/mL (5 MLD50/mice) in 30 μL sterile PBS via the intranasal route. Two hours post-infection, each group (13 mice) received the following compounds: (1) Tamiflu capsules were dissolved in PBS at a concentration of 10mg/kg and then centrifuged at 1,000rpm/10minutes for removal of the filler. From this solution 200 μL was administered per day orally for 5 days, or (2) flavonoid (Isorhamnetin) was initially dissolved in 0.2% DMSO and then diluted in PBS to a final concentration of 1 mg/kg and less than 0.2% DMSO. This mixture mixed will by vortex and 30 μL of this mixture was administered per day via the intranasal route for 5 days.
One week after infection, the lungs of 3 mice per group were collected for the virology analysis. Lung tissues were excised, homogenized using a homogenizer (Tissue Lyser, Qiagen, Valencia, CA, USA), and centrifuged (2,000 g for 5 min). Ten-fold serial dilutions of the supernatant from the lung homogenate samples were subjected to the virology assays for virus titer determination. Lung homogenates were injected into the allantoic sac of 10-day-old embryonated eggs, which were incubated at 37°C for 48 hr, after which the allantoic fluid was harvested. The virus titer in the allantoic fluid was assessed using the HA assay. The virus titer (EID50/mL) in the fluid was calculated based on the method of Reed and Muench. For the assessments of body weight and survival rate, mice were observed daily for 14 days and monitored for clinical signs.

Series [2] has as its system LC3B. As to the kind of experiment: Western blot for LC3B lipidation. The settings on record: 50 μM; post-treatment. The series is classed as cell-based, canine. The source says: Autophagy can also be measured by changes in LC3B localization, because the degree of conversion of LC3B-I to LC3B-II provides an indicator of autophagic activity. Western blotting detected LC3B as 2 bands: cytosolic LC3B-I and membrane-bound LC3B-II (which is bound to the autophagosome membrane). The molecular weight of LC3B-II is greater than that of LC3B-I. However, due to its hydrophobicity, LC3B-II migrates faster in SDS-PAGE, and therefore, has a lower apparent molecular weight.
To prepare whole-cell extracts, cells were washed 3 times using cold PBS, scraped from the dishes, and suspended in protein extraction buffer containing 1% Triton X-100 (Amresco), 100 mM Tris-HCl, 10 mM NaCl, 10% glycerol, 1 mM sodium orthovanadate (Sigma-Aldrich), 50 mM sodium fluoride (Sigma-Aldrich), and 1 mM phenylmethylsulfonyl fluoride (PMSF; Sigma-Aldrich). After incubation on ice for 30 min, lysates were centrifuged and proteins in the supernatants were quantified using the Bradford Protein Assay Reagent (Bio-Rad). Protein samples were separated via 10% SDS-PAGE and transferred to nitrocellulose membranes ([…]; Protran, Newton, NJ, USA). The membranes were blocked using 5% nonfat dry milk and 0.1% Tween-20 in Tris-buffered saline and probed with the primary antibody. […]

In series [3] the test system is influenza A/PR/8/34 (H1N1). Put plainly: microbe, parasite or virus in culture. The following applies: MDCK.
Series [4] has as its system virus-induced autophagic puncta / acidic vesicular organelles in MDCK cells. Put plainly: Virus-induced autophagy assay (AVO staining with AO and MDC). Type of series: cell-based, canine. The following applies: 50 μM. The protocol:
To examine the ability of isorhamnetin to block the formation of acidic vesicular organelles (AVOs) after influenza A virus infection, we used various vital staining methods for AVOs, as described previously. Briefly, MDCK cells were cultured on 24-well plates until 80% confluence. Cells were infected with influenza A/PR/08/34 (H1N1) virus as described previously and treated with 50 μM of isorhamnetin using the 3 aforementioned methods of flavonoid treatment (pre-treatment, co-treatment, and post-treatment methods). Cells were stained with 5 μg/mL acridine orange (AO) (Sigma-Aldrich) and 50 μM of monodansylcadaverine (MDC) (Sigma-Aldrich)for 15 min at 37°C and washed 3 times with PBS, after which the cells were examined under a fluorescence microscope (Carl Zeiss, Jena, Germany) to allow detection of autophagic puncta.

The subject of series [5] is influenza A/PR/8/34 (H1N1). Type of series: cell-based, influenza A virus. The following applies: post-treatment 48 hr.
Series [6] can be described thus: Cytotoxicity assay (EZ-Cytox) in MDCK cells. The series is classed as cell-based, canine. The settings on record: dog; MDCK cells, 48 hr. The protocol:
To determine the 50% cytotoxic concentration (CC50) for each of the tested flavonoid compounds, MDCK cells were seeded onto 96-well plates (NUNC, Penfield, NY, USA) at a density of 1 × 10^4 cells per well and incubated overnight for 80% confluence. MDCK cells were washed twice with PBS and the culture medium was replaced with medium containing serially diluted flavonoids (concentrations from 10μM up to 300 μM) for 48 hr at 37°C in a 5% CO2atmosphere. After the incubation period, the flavonoid-containing media was replaced with new media containing 10% EZ-Cytox (Daeil Lab Service, Seoul, South Korea), and the cells were incubated in the dark for 3 hr at 37°C in a 5% CO2 atmosphere. The optical density was measured at 480 nm using an x-Mark spectrophotometer (Bio-Rad, Hercules, CA, USA). Cytotoxicity was estimated by comparing the cell survival rate of the flavonoids-treated cells and the DMSO-treated cells with the control (virus-untreated) cells. The control cell values were arbitrarily set as the 100% survival rate. The treated cells values were normalized to the control cell values. The calculation of CC50 was carried out as described in detail in S1 Text.
The 50% cytotoxic concentration (CC50) was calculated according to the following equation:
Cytotoxicity (%) = [100-(ODt/ODs)] x100
ODt: The optical density (OD) of cells treated with the tested flavonoids.
ODs: The OD of cells treated with the control solvent (0.2 % DMSO).
After obtaining the results, we calculated the concentration that induces 50% cell death using the following equation:
(X2 - X1) X (50-Y1) / (Y2 - Y1) + X1. Where, X1 represents the lower concentration used in this experiment, while X2 represents the higher concentration. Y1 represents the mean of the percentage of the viable cells at X1 concentration. On the other hand, Y2 represents the mean of the percentage of the viable cells at X2 concentration.”

Series [7] deals with influenza A/PR/8/34 (H1N1) virus particles, chicken RBCs. The settings on record: lowest concentration.
Where [8] appears, read: infected mice, abstract says oral administration.

As to `COc1cc(-c2oc3cc(O)cc(O)c3c(=O)c2O)ccc1O` [Isorhamnetin, isorhamnetin], the “toxic effect in mice” value in series [1] (data not shown) is listed as “no significant toxic effect”. Besides, the survival rate in series [1] (infected mice, observed 14 days) is on record as 70–80%. In addition, the “decrease in body weight loss” value in series [1] (setting [8]) was 25%. For the same compound, the “decrease in lung virus titer” value in series [1] (setting [8]) came to 2 folds. Further, the body weight loss entry in series [1] (vs PBS control group, 14 days) is “reduced body weight loss”. Besides, the “lipidation of LC3B-II” value in series [2] is “significantly suppressed”. Also, the EC50 was 76 µM in series [3] (0.5 h, Co-treatment (0.5 hr)); 42 µM in series [3] (1 h, Co-treatment (1 hr)); under 30 µM in series [3] (2 h, Co-treatment (2 hr)); 23 µM in series [3] (48 h, Post-treatment); 51 µM in series [3] (Pre-treatment (1 hr)); 65 µM in series [3] (Pre-treatment (12 hr)). Moreover, the concentration giving a half-maximal response (EC50) in series [3] (Pre-treatment (24 hr)) was determined as 88 µM. In series [4] (post-treatment), the “virus-induced autophagic puncta formation and AVO acidification” value is reported as “almost completely blocked”. Also, the “virus-induced autophagic puncta formation and acidification of AVOs” value in series [4] (pre-, co-, and post-treatment) is “significantly suppressed”. Moreover, the “virus titer in HA assay (virus yield reduction)” value in series [5] is given as “almost completely suppressed”. The same compound returned a 50% cytotoxic concentration (CC50) at 48 h in series [6] of over 280 µM. Moreover, the “hemolysis of chicken RBCs by the virus particle (HI assay)” value in series [7] is on record as “significantly inhibited”.

The values above are taken from paper PMC4373826, “Antiviral Effect of Methylated Flavonol Isorhamnetin against Influenza” (PLoS ONE, 2015).
